Consider one compound from article PMC9917099, “The Mycotoxin Patulin Inhibits the Mitochondrial Carnitine/Acylcarnitine Carrier (SLC25A20) by Interaction with Cys136 Implications for Human Health” (International Journal of Molecular Sciences, 2023).

What all share (assay type): biochemical
In assay [1] the target is T1, CAC in intact rat liver mitochondria (Rattus norvegicus, UniProt P97521).
T1 construct: the native protein extracted from rat liver mitochondria; from tissue; host or cells: rat liver mitochondria (Triton X-100 extract)
T1 sequence (P97521 1-301): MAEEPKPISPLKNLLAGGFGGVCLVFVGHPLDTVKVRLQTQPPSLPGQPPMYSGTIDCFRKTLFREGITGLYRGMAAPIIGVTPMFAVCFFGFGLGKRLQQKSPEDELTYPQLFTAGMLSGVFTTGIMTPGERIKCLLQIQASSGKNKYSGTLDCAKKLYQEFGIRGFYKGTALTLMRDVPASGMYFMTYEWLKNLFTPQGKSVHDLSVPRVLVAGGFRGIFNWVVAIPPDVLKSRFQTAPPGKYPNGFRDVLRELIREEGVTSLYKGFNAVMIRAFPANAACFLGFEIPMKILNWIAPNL
Description: Treatment of intact rat liver mitochondria, then solubilization, reconstitution in proteoliposomes and carnitine antiport assay. As for the experimental part:
Figure 1 Effect of Patulin on the native carnitine/acylcarnitine carrier (CAC). (A) Dose-response analysis of proteoliposomes reconstituted with the CAC extracted from rat liver mitochondria (0.3 mg of total proteins) and incubated with PAT at the indicated concentrations for 30 min, before measuring the transport activity by adding 0.1 mM [^3H] carnitine for 10 min as described in Materials and Methods. The percentage of residual activity compared to control, without PAT treatment, is reported. The values are the means ± SD from three independent experiments. (B) Rat liver mitochondria (5 mg/100 μL) were incubated or not (control) for 60 min, with Patulin (60 μM) or GSH (5 mM) as indicated. Upon treatment, the unreacted drug was removed by washing the mitochondria in PBS 1X and then 0.3 mg mitochondria were solubilized by 3% TX-100, 10 mM PIPES pH 7.0 and reconstituted in proteoliposomes for transport assay as indicated in (A) and Materials and Methods. Black and white bars indicate without or with the addition of 5 mM dithioerythritol (DTE) 1 min before the transport assay to aliquots of each sample.
The effect of PAT on the CAC at 60 µM concentration was also detected in intact rat liver mitochondria. Upon treatment (60 min), the mitochondria were solubilized in Triton X-100 and 0.3 mg of mitochondrial extract were reconstituted in proteoliposomes for testing the transport activity of CAC (see above). […] Aliquots of intact mitochondria incubated with PAT were treated also with reduced GSH to verify whether this physiological SH-reducing agent was able to reverse the mycotoxin-protein interactions.
The recombinant CAC proteins were reconstituted in proteoliposomes as previously described. Rat liver mitochondria after purification, using the standard procedure of cell disruption and differential centrifugation were solubilized with 3% Triton X-100 in a PIPES buffer (10 mM) at pH 7.0. Herein, the mitochondrial extract (0.3 mg) were reconstituted in the liposomes as above described for the mitochondrial CAC recombinant protein, in the absence of reducing agents. The concentration of intraliposomal carnitine was 15 mM in all samples.
For the transport assay, 550 μL of proteoliposomes were passed through a Sephadex G-75 column in order to remove the external substrate. Six hundred μL of the turbid eluate were collected, divided into samples of 100 μL each, and used for transport measurement by the inhibitor-stop method. Transport was started as homoexchange by adding 0.1 mM [^3H]-carnitine to proteoliposomes containing 15 mM carnitine and, at the indicated time interval, stopped by 1.5 mM NEM (N-ethylmaleimide). The inhibitor was added together with the labelled substrate at time zero in the control samples. After finishing the transport reaction, the external radiolabel substrate was removed by gel filtration chromatography (Sephadex G-75), and the intraliposomal radioactivity was measured by liquid scintillation. Transport was measured at 25 °C. The experimental values were corrected by subtracting the controls. Transport rates were measured in 10 min, i.e., within the initial linear range of the time course.

A further assay addresses T2, recombinant rat WT CAC (Rattus norvegicus, UniProt P97521).
T2 construct: made in house; host or cells: E. coli C0214 (pMW7, inclusion bodies)
T2 sequence (P97521 1-301): T1 sequence (P97521 1-301)
Description: [3H]-carnitine/carnitine antiport in proteoliposomes with recombinant rat WT CAC. As for the experimental part: To shed light on the interaction between PAT and CAC and verify if specific Cys residues were involved, transport experiments on the recombinant rat and human WT CAC and CAC’s rat Cys mutants were performed. As in the case of the native protein, transport activities were measured as [^3H]-carnitine/carnitine antiport in proteoliposomes. […] The PAT inhibition of the WT recombinant protein was only slightly greater compared to the native protein, although compounds and other molecular systems that affect the mycotoxin binding to the native CAC were absent (see above). For identifying the residues involved in the PAT interaction, site-directed Cys mutants were tested for inhibition (Figure 2). […] The choice of this last mutant was due to the proximity of C155 to C136 during some steps of the substrate translocation mechanism. […] To confirm the main role played by C136 in the carrier PAT-induced impairment, the single mutant C155S and the mutant containing only C136 residue (C23V/C58V/C89S/C155V/C283S) were examined (Figure 2). […] Finally, no effect of the mycotoxin was observed on the C-less mutant (C23V/C58V/C89S/C136V/C155V/C283S), definitively excluding the participation of other residues in the interaction with PAT.
Figure 2 Dose-response analysis of the PAT inhibition of the CAC recombinant proteins. […] The data are expressed as a percentage of the controls (no PAT addition) and are means ± SD of three independent experiments.
The pMW7-WT rat or human CAC recombinant plasmids were used for over-expressing the rat and human CAC, as previously described. To introduce the mutations on the rat CAC recombinant plasmid, the overlap extension method was used as described, introducing the NdeI and HindIII restriction sites. The PCR products were purified using the QIAEX II Gel Extraction Kit (QIAGEN, Hilden, Germany), digested with NdeI and HindIII, and then ligated into the pMW7. All mutations were verified by DNA sequencing. The resulting plasmid constructs were transformed into E. coli C0214. Overexpression, inclusion body fraction preparation, and purification of the CAC proteins were performed as previously described.
The recombinant CAC proteins were reconstituted in proteoliposomes as previously described. […]
(§1) For the transport assay, 550 μL of proteoliposomes were passed through a Sephadex G-75 column in order to remove the external substrate. […] After finishing the transport reaction, the external radiolabel substrate was removed by gel filtration chromatography (Sephadex G-75), and the intraliposomal radioactivity was measured by liquid scintillation. Transport was measured at 25 °C. […] Transport rates were measured in 10 min, i.e., within the initial linear range of the time course.

For assay [2], the target named is T3, rat CAC mutant C23V/C58V/C89S/C136V/C283S (Rattus norvegicus, UniProt P97521, C136V/C23V/C283S/C58V/C89S).
T3 construct: made in house; host or cells: E. coli C0214 (pMW7, inclusion bodies)
T3 sequence (P97521 1-301 C23V/C58V/C89S/C136V/C283S): T1 sequence (P97521 1-301) with C23V, C58V, C89S, C136V, C283S
In words: Carnitine antiport in proteoliposomes, CAC mutant containing only C155. The protocol:
To shed light on the interaction between PAT and CAC and verify if specific Cys residues were involved, transport experiments on the recombinant rat and human WT CAC and CAC’s rat Cys mutants were performed. As in the case of the native protein, transport activities were measured as [^3H]-carnitine/carnitine antiport in proteoliposomes. […] The PAT inhibition of the WT recombinant protein was only slightly greater compared to the native protein, although compounds and other molecular systems that affect the mycotoxin binding to the native CAC were absent (see above). For identifying the residues involved in the PAT interaction, site-directed Cys mutants were tested for inhibition (Figure 2). […]
Figure 2 Dose-response analysis of the PAT inhibition of the CAC recombinant proteins. […] The data are expressed as a percentage of the controls (no PAT addition) and are means ± SD of three independent experiments. […]
as §1

Molecules are shown by their SMILES. Residue numbers refer to the chain shown, from its start. “And” between values parts separate entries of the source, which are not always exact repeats. Equal entries are not always repeated.

For orientation: inhibition means the change of the read-out against control, counted positive when it falls. As a reminder, the IC50 is the concentration needed to halve the response being measured. As to `O=C1C=C2C(=CCOC2O)O1` (stereo not shown) [PAT, 4-hydroxy-4H-furo [3,2c] pyran-2 [6H] -one], the inhibition at 60 µM in assay [1] (60 µM PAT, 60 min, intact rat liver mitochondria, read-out: inhibition of CAC transport activity compared to control) was around 50%. For the same compound, in assay [1] (60 µM PAT, then 5 mM GSH), the “recovery of transport activity on addition of GSH after PAT treatment” value was “did not lead to a recovery”. In addition, in assay [1] (5 mM DTE added 1 min before transport assay), the “reversal of PAT binding by DTE” value is on record as “No reverse binding”. In addition, in assay [1] (5 mM GSH before 60 µM PAT), the “effect of GSH added to mitochondria before PAT incubation on PAT inhibition” value is given as “prevented”. For the same compound, the IC50 was 60 µM in assay [1] (intact rat mitochondria); 47 µM and ~50 µM on recombinant rat WT CAC (rat recombinant WT, PAT 30 min, read-out: IC50 of CAC WT inhibition); “not possible to detect” in assay [2]. The “reversal of inhibition by DTE” value at recombinant rat WT CAC (50 μM PAT 30 min, 5 mM DTE, recombinant WT) was “not reversed”. The “substrate protection: effect of carnitine on PAT inhibition” value on recombinant rat WT CAC (carnitine 0.5 and 10 mM added before 50 μM PAT) is on record as “partially prevented”. Also, the type of inhibition result on recombinant rat WT CAC (protein form not specified) is listed as “competitive”.
